Measured values as given in ChEMBL document CHEMBL5214963, “Development of a penetratin-conjugated stapled peptide that inhibits Wnt/β-catenin signaling” (Bioorg Med Chem, 2022).
The source made the active and inactive calls. No cut-off for these calls is given here. *1 amine or outer side, *2 acyl side, *3 side chain or, on linkers, in order; H or OH if unused. Where a SMILES comes first, the peptide text is derived from it. Bridges are numbered along the chain shown (N, C = ends). [ ]: non-standard residue; d: D form. Nle(6-ylidene) = O=C([C@H](CCCC=[*:3])N[*:1])[*:2]; Nle = CCCC[C@H](N)C(=O)O; βAla = NCCC(=O)O

Legend:
[1] = Stability of the compound in proteinase K (unknown origin) assessed as remaining parent compound at 100 uM measured after 480 mins by HPLC analysis; assay type: ADME; settings: read-out: Stability
A549 [2] = assay: Cytotoxicity against human A549 cells assessed as cell growth inhibition at 20 uM incubated for 24 hrs by CellTiter-Glo reagent based microplate reader analysis; assay type: functional
DLD-1 [3] = assay: Cytotoxicity against human DLD-1 cells assessed as reduction in cell growth at 20 uM incubated for 24 hrs by CellTiter-Glo reagent based microplate reader analysis; assay type: functional
A549 [4] = assay: Cytotoxicity against human A549 cells assessed as cell growth inhibition at 20 uM incubated for 5 days by CellTiter-Glo reagent based microplate reader analysis; assay type: functional; settings: time 5.0 day
DLD-1 [5] = assay: Cytotoxicity against human DLD-1 cells assessed as cell growth inhibition at 20 uM incubated for 5 days by CellTiter-Glo reagent based microplate reader analysis; assay type: functional; settings: time 5.0 day
HEK293 [6] = assay: (§1) Inhibition of Wnt/beta-catenin transactivation signalling in Wnt3a stimulated human HEK293 cells harbouring TCF/LEF luciferase reporter gene assessed as inhibition TCF-beta-catenin complex formation by measuring luminescence level at 0.1 to 20 uM preincubated for 15 hrs followed by recombinant mouse Wnt-3a addition and measured after 5 hrs by luminescence based microplate reader analysis; assay type: cell-based; settings: dose 0.1-20 µM, time 20.0 hrs, DDE = dose-dependent effect
HEK293 [7] = assay: as §1, with “50” for “0.1 to 20”; assay type: cell-based; settings: time 20.0 hrs
HEK293 [8] = assay: as §1, with “at” for “at 0.1 to”; assay type: cell-based; settings: time 20.0 hrs

With CCCC[C@H](NC(=O)[C@@H]1CCC/C=C\CCC[C@H](NC(=O)[C@H](C)NC(=O)[C@H](C)NC(=O)CCN)C(=O)N[C@@H](CC(C)C)C(=O)N[C@@H](CC(=O)O)C(=O)N[C@@H](Cc2ccc(O)cc2)C(=O)N1)C(=O)N[C@@H](CS)C(=O)N[C@@H](CC(N)=O)C(=O)N[C@@H](Cc1ccc(O)cc1)C(=O)O (H-[βAla]AA[Nle(6-ylidene)]LDY[Nle(6-ylidene)][Nle]CNY-OH; staple (Z) 4-8) the remaining at 8 h, 100 µM [1] was 65%.

In the case of CC(C)C[C@H](NC(=O)[C@H](C)NC(=O)[C@H](C)NC(=O)CCN)C(=O)N[C@@H](CC(C)C)C(=O)N[C@@H](CC(=O)O)C(=O)N[C@@H](Cc1ccc(O)cc1)C(=O)N[C@H](C(=O)N[C@@H](CS)C(=O)N[C@@H](CC(N)=O)C(=O)N[C@@H](Cc1ccc(O)cc1)C(=O)O)[C@@H](C)O (H-[βAla]AALLDYTCNY-OH), the remaining at 8 h, 100 µM [1] is reported as 0.1%.

For CCCC[C@H](NC(=O)[C@@H]1CCC/C=C\CCC[C@H](NC(=O)[C@H](C)NC(=O)[C@H](C)NC(=O)CCNC(=O)[C@H](CCCCN)NC(=O)[C@H](CCCCN)NC(=O)[C@H](Cc2c[nH]c3ccccc23)NC(=O)[C@H](CCCCN)NC(=O)[C@H](CCSC)NC(=O)[C@H](CCCNC(=N)N)NC(=O)[C@H](CCCNC(=N)N)NC(=O)[C@H](CC(N)=O)NC(=O)[C@H](CCC(N)=O)NC(=O)[C@H](Cc2ccccc2)NC(=O)[C@H](Cc2c[nH]c3ccccc23)NC(=O)[C@@H](NC(=O)[C@H](CCCCN)NC(=O)[C@@H](NC(=O)[C@H](CCC(N)=O)NC(=O)[C@@H](N)CCCNC(=N)N)[C@@H](C)CC)[C@@H](C)CC)C(=O)N[C@@H](CC(C)C)C(=O)N[C@@H](CC(=O)O)C(=O)N[C@@H](Cc2ccc(O)cc2)C(=O)N1)C(=O)N[C@@H](CS)C(=O)N[C@@H](CC(N)=O)C(=O)N[C@@H](Cc1ccc(O)cc1)C(=O)O, the Activity (A549 [2]) was “Active”, the Activity (DLD-1 [3]) was “Active” and the Activity (A549 [4]) was “Active”. The Activity (DLD-1 [5]) was “Active” and the inhibition (HEK293 [6]) was “Dde”.

In the case of O=C(Nc1cccc2cccnc12)c1ccc(N2C(=O)[C@@H]3[C@H](C2=O)[C@@H]2C=C[C@H]3C2)cc1, the inhibition (HEK293 [7]) is reported as “Active”.

With CCCC[C@H](NC(=O)[C@@H]1CCC/C=C\CCC[C@H](NC[C@H](C)NC(=O)[C@H](C)NC(=O)CCNC(=O)[C@H](CCC(N)=O)NC(=O)[C@@H]2CCCN2C(=O)[C@@H]2CCCN2C(=O)[C@H](CCCNC(=N)N)NC(=O)[C@H](CCCNC(=N)N)NC(=O)[C@H](CCCNC(=N)N)NC(=O)[C@H](CCC(N)=O)NC(=O)[C@H](CCCNC(=N)N)NC(=O)[C@H](CCCNC(=N)N)NC(=O)[C@H](CCCCN)NC(=O)[C@H](CCCCN)NC(=O)[C@H](CCCNC(=N)N)NC(=O)CN)C(=O)N[C@@H](CC(C)C)C(=O)N[C@@H](CC(=O)O)C(=O)N[C@@H](Cc2ccc(O)cc2)C(=O)N1)C(=O)N[C@@H](CS)C(=O)N[C@@H](CC(N)=O)C(=O)N[C@@H](Cc1ccc(O)cc1)C(=O)O the Activity (A549 [2]) was “Active” and the Activity (DLD-1 [3]) was “Active”.

With CCCC[C@H](NC(=O)[C@@H]1CCC/C=C\CCC[C@H](NC(=O)[C@H](C)NC(=O)[C@H](C)NC(=O)CCNC(=O)[C@H](CCCNC(=N)N)NC(=O)[C@H](CCCNC(=N)N)NC(=O)[C@H](CCCNC(=N)N)NC(=O)[C@H](CCCNC(=N)N)NC(=O)[C@H](CCCNC(=N)N)NC(=O)[C@H](CCCNC(=N)N)NC(=O)[C@H](CCCNC(=N)N)NC(=O)[C@@H](N)CCCNC(=N)N)C(=O)N[C@@H](CC(C)C)C(=O)N[C@@H](CC(=O)O)C(=O)N[C@@H](Cc2ccc(O)cc2)C(=O)N1)C(=O)N[C@@H](CS)C(=O)N[C@@H](CC(N)=O)C(=O)N[C@@H](Cc1ccc(O)cc1)C(=O)O the Activity (A549 [2]) was “Active” and the Activity (DLD-1 [3]) was “Active”.

For CC[C@H](C)[C@@H]1NC(=O)[C@@H](NC(=O)[C@H](CCCNC(=N)N)NC(=O)[C@@H]2CCCN2C(=O)[C@H](Cc2c[nH]c3ccccc23)NC(=O)[C@H](CCCNC(=N)N)NC(=O)[C@H](CCCNC(=N)N)NC(C)=O)CCC/C=C\CCC[C@@H](C(=O)N[C@@H](Cc2cnc[nH]2)C(=O)N[C@H](C(=O)N[C@@H](CCCNC(=N)N)C(=O)N[C@@H](CCCNC(=N)N)C(=O)N[C@H](C(=O)N[C@@H](Cc2c[nH]c3ccccc23)C(=O)N[C@@H](CCCNC(=N)N)C(=O)O)C(C)C)C(C)C)NC(=O)[C@H](CC(=O)O)NC(=O)[C@H](CC(C)C)NC1=O (Ac-RRWPR[Nle(6-ylidene)]ILD[Nle(6-ylidene)]HVRRVWR-OH; staple (Z) 6-10), the Activity (A549 [4]) was “Active”, the Activity (DLD-1 [5]) was “Active” and the inhibition (HEK293 [8]) was “Active”.
